Reference: ChEMBL document CHEMBL1201862, “PubChem BioAssay data set” (2004)
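A five-concentration, 48-hour dose response in 96-well plates underlies each endpoint, interpolated linearly between surrounding concentrations. Abbreviation: GI50, concentration required for 50% inhibition of growth.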 Activity calls are given as the source filed them. Rule as the data show it: active = GI50 up to about 1.1 µM and inactive = higher.

Key:
Assay in all cases: NCI tumour cell line growth inhibition, 48 h
[1] = test system: LXFL 529
[2] = test system: Malme-3M
[3] = test system: SF-268
[4] = test system: IGROV-1
[5] = test system: LOX IMVI
[6] = test system: UACC-257
[7] = test system: A498
[8] = test system: KM12
[9] = test system: OVCAR-3
[10] = test system: SNB-19
[11] = test system: M14
[12] = test system: NCI-H23
[13] = test system: UO-31
[14] = test system: NCI-H460
[15] = test system: 786-0
[16] = test system: HOP-92
[17] = test system: NCI-H522
[18] = test system: HL-60
[19] = test system: HT-29
[20] = test system: DMS-273
[21] = test system: HCT-15
[22] = test system: ACHN
[23] = test system: SR
[24] = test system: OVCAR-8
[25] = test system: SW-620
[26] = test system: CAKI-1
[27] = test system: UACC-62
[28] = test system: RXF 393
[29] = test system: SK-OV-3
[30] = test system: RPMI-8226
[31] = test system: SK-MEL-5
[32] = test system: SF-539
[33] = test system: RXF 631
[34] = test system: DLD-1
[35] = test system: MOLT-4
[36] = test system: KM-20L2
[37] = test system: HOP-18
[38] = test system: SK-MEL-2
[39] = test system: HCT-116
[40] = test system: SNB-78
[41] = test system: HCC 2998
[42] = test system: HOP-62
[43] = test system: TK-10
[44] = test system: NCI-H226
[45] = test system: K562
[46] = test system: DMS-114
[47] = test system: OVCAR-4
[48] = test system: EKVX
[49] = test system: SNB-75
[50] = test system: OVCAR-5
[51] = test system: XF498
[52] = test system: SK-MEL-28
[53] = test system: COLO 205
[54] = test system: CCRF-CEM
[55] = test system: SN12C
[56] = test system: A549
[57] = test system: SF-295
[58] = test system: U-251
[59] = test system: M19-MEL

Measured: GI50

CC(C)(C)c1ccc(Oc2ccc(C#N)c(C#N)c2)c(C(C)(C)C)c1
14.4 µM: [21]
inactive: [1] 31.2 µM | [2] > 100 µM | [3] 32.7 µM | [4] > 89.7 µM | [5] 30.6 µM | [6] 29.4 µM | [7] > 63.5 µM | [8] 29.8 µM | [9] 40.1 µM | [10] 49.5 µM | [11] 53 µM | [12] 43.6 µM | [13] 32.7 µM | [14] 28.8 µM | [15] 52.6 µM | [16] 31.8 µM | [17] 17.2 µM | [18] 10.4 µM | [19] 34.3 µM | [20] 15.2 µM | [22] 34.9 µM | [23] 18.7 µM | [24] 51.4 µM | [25] 49.3 µM | [26] 56.4 µM | [27] 52.1 µM | [28] 24.3 µM | [29] > 100 µM | [30] 17 µM | [31] 31.3 µM | [32] > 93.5 µM | [33] > 60.3 µM | [34] 37 µM | [35] 17.4 µM | [36] 44 µM | [37] > 100 µM | [38] 40.6 µM | [39] 24.6 µM | [40] 42.5 µM | [41] 48.9 µM | [42] > 100 µM | [43] > 100 µM | [44] 46.6 µM | [45] 21.2 µM | [46] 19.6 µM | [47] 49.7 µM | [48] 58.2 µM | [49] > 26.3 µM | [50] > 21 µM | [51] 12.6 µM | [52] 51.5 µM | [53] 28.3 µM | [54] 23.2 µM | [55] 43 µM | [56] 60.4 µM | [57] > 58.9 µM | [58] 33.7 µM

NC(CCSCC(F)F)C(=O)O (centres undefined)
inactive: [1] > 100 µM | [2] > 100 µM | [3] > 100 µM | [4] > 100 µM | [5] > 100 µM | [6] > 100 µM | [7] > 100 µM | [8] > 100 µM | [9] > 100 µM | [10] > 100 µM | [11] > 100 µM | [12] > 100 µM | [13] > 100 µM | [14] > 100 µM | [15] > 100 µM | [16] > 100 µM | [17] > 100 µM | [18] > 100 µM | [19] > 100 µM | [20] > 100 µM | [22] > 100 µM | [23] > 100 µM | [24] > 100 µM | [25] > 100 µM | [26] > 100 µM | [27] > 100 µM | [28] > 100 µM | [31] > 100 µM | [32] > 100 µM | [33] > 100 µM | [34] > 100 µM | [35] > 100 µM | [36] > 100 µM | [37] > 100 µM | [39] > 100 µM | [40] > 100 µM | [41] > 100 µM | [42] > 100 µM | [59] > 100 µM | [43] > 100 µM | [44] > 100 µM | [45] > 100 µM | [46] > 100 µM | [47] > 100 µM | [48] > 100 µM | [49] > 100 µM | [50] > 100 µM | [51] > 100 µM | [52] > 100 µM | [53] > 100 µM | [54] > 100 µM | [55] > 100 µM | [56] > 100 µM | [57] > 100 µM | [58] > 100 µM
> 100 µM: [21]

O=C1CCNC/C1=C\c1ccccc1
17.1 µM: [21]
inactive: [1] 16.1 µM | [3] 19.6 µM | [4] 29.9 µM | [5] 16.8 µM | [6] 25.8 µM | [7] > 100 µM | [8] 14.8 µM | [9] 22.9 µM | [10] 19.4 µM | [11] 14 µM | [12] 18.2 µM | [13] 17 µM | [14] 30.9 µM | [15] 15.6 µM | [17] 11.3 µM | [18] 16.3 µM | [19] 15.6 µM | [20] 25.8 µM | [22] 22.9 µM | [23] 25.2 µM | [24] 22.2 µM | [25] 21.8 µM | [26] 44.8 µM | [27] 17.1 µM | [29] 55 µM | [30] 24 µM | [31] 20.3 µM | [32] 17.4 µM | [33] 26.5 µM | [34] 18.9 µM | [35] 24.7 µM | [36] 14.7 µM | [37] > 10 µM | [38] 54 µM | [39] 17.9 µM | [40] 32.8 µM | [41] 20.1 µM | [42] 29.1 µM | [59] 17.9 µM | [43] 26.1 µM | [44] 24 µM | [45] 23.1 µM | [46] 24.1 µM | [47] 15.9 µM | [48] > 100 µM | [49] 37.8 µM | [50] 24.7 µM | [51] 23.9 µM | [52] 17.4 µM | [53] 40.6 µM | [55] 34.5 µM | [56] 22.2 µM | [57] 26.9 µM | [58] 20.5 µM
